This experiment deals with VIM-2-transformed E. coli growth with imipenem, MIC. Briefly: growth inhibition of VIM-2-expressing E. coli with imipenem, late-stage follow-up, counter-screen for IMP-1 and VIM-2 inhibitor project, VIM-2-transformed E. coli, imipenem co-treatment (AID 463100). In general terms: A counterscreen serves to expose hits that act by an unwanted route or on another target.
By MIC is commonly meant the lowest concentration found to suppress growth. Turning to `O=C(O)c1ccc[c]([Hg+])c1`, the MIC was 2.08 µM. Next, `[Hg+][c]1ccccc1`: 0.625 µM; `Cc1cc[c]([Hg+])cc1`: 0.651 µM.

For `O=C(O)c1cc[c]([Hg][Cl])cc1`, the minimum inhibitory concentration (MIC) was 9.37 µM. Take `COc1cccc[c]1[Hg+]`: the MIC was 0.781 µM. Next, `CC(=O)Nc1cc[c]([Hg+])cc1`: 2.5 µM.

(Values after PubChem BioAssay AID463100 (The Scripps Research Institute Molecular Screening Center, 2010).)
